According to patent US8211916B2, “N- and O-substituted 4-[2-(diphenylmethoxy)-ethyl]-1-[(phenyl)methyl]piperidine analogs and methods of treating CNS disorders therewith” (Wayne State University, priority 2000, dated 2012):
Like-named read-outs stand apart in the source and are kept apart here.

How the values were obtained:
[1] = target: T1, rat SERT (Rattus norvegicus, UniProt P31652); assay: Rat SERT binding, [3H]citalopram, striatal membranes
T1 construct: from tissue; host or cells: rat striatum (membranes)
T1 sequence (P31652 whole entry): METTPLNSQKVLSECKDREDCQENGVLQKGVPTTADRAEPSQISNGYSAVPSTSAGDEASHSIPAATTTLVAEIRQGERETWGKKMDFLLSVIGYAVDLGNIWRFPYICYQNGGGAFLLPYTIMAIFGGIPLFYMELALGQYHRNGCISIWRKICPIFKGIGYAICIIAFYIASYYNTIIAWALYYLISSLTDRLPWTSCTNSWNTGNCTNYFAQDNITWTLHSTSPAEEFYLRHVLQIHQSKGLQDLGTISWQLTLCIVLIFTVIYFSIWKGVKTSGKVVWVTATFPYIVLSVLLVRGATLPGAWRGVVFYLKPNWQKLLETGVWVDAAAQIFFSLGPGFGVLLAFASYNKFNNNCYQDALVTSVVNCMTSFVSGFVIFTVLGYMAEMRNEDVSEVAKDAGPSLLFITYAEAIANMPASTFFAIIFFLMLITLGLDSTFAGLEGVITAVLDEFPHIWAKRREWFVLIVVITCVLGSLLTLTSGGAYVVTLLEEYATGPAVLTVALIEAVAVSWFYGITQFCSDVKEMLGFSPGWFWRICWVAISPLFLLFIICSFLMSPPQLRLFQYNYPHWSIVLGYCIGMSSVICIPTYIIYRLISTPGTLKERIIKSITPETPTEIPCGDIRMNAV
Procedure: (§2) Briefly, rat striatal membranes were incubated with radioligand and inhibitor for 2 h on ice in a sodium phosphate buffer at a final Na^+ concentration of 30 nM, pH 7.4, at room temperature. The assays were terminated by filtration through glass fiber filtermats (Wallac, Inc., Gaithersburg, Md.), presoaked in 0.05% (v/v) polyethyleneimine, with a MACH3-96 Tomtec harvester (Wallac, Inc.). Filters were assayed for radioactivity in a Microbeta Plus liquid scintillation counter (Wallac, Inc.).

[2] = target: T2, Norepinephrine (NET) Transporter (Rattus norvegicus, UniProt Q63380); assay: NET binding, [3H]nisoxetine
T2 construct: and norepinephrine Transporters in Rat Striatum; from tissue
T2 sequence (Q63380 1-617): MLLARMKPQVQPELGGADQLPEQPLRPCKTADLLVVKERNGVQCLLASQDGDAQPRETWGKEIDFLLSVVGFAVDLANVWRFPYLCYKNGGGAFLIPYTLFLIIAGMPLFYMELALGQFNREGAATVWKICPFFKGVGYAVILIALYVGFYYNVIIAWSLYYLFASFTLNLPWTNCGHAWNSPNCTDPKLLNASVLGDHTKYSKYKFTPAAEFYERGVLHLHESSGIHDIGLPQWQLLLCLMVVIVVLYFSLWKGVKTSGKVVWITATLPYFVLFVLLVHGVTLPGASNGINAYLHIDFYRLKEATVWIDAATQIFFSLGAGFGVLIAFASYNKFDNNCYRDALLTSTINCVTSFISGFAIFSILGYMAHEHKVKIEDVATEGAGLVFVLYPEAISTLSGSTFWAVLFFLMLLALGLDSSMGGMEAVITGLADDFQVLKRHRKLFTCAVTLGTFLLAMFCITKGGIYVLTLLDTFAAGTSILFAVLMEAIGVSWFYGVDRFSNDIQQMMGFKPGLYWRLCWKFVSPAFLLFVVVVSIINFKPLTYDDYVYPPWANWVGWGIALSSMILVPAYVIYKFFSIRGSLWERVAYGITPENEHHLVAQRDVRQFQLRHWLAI

[3] = target: T3, dopamine transporter (DAT) (Rattus norvegicus, UniProt P23977); assay: biochemical
T3 sequence (P23977 whole entry): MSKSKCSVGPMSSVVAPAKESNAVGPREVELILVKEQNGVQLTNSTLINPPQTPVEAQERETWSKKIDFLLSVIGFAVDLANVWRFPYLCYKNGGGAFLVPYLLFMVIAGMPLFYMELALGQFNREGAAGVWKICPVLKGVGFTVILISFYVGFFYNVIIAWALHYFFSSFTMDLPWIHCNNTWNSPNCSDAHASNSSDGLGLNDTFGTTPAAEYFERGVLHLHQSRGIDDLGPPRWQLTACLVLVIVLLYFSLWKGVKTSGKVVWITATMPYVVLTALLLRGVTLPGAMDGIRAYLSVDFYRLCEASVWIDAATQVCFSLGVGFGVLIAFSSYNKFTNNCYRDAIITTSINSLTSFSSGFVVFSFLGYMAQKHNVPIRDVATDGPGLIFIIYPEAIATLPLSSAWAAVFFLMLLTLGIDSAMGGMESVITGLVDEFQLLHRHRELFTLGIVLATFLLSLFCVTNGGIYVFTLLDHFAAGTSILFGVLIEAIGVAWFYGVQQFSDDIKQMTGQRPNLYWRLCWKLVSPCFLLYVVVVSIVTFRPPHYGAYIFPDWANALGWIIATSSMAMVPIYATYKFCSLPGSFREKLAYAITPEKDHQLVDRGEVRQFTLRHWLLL

[4] = target: T4, DAT (Rattus norvegicus, UniProt P23977); assay: Uptake of [3H]DA by DAT, rat striatum; type: biochemical; settings: [3H]DA uptake, rat striatum; read-out: Ki (DAT), inhibition of DA uptake
T4 construct: from tissue; host or cells: rat striatum
T4 sequence (P23977 whole entry): as above
Source text: (§1) Transporter assays. The affinity of test compounds in binding to rat DAT and in inhibiting monoamine uptake was monitored as described by us previously. […] Rat cerebral cortex was used for assessing uptake of [^3H]serotonin by SERT and hippocampus for uptake of [^3H]NE by NET. […] At lease five triplicate concentrations of each test compound were studied, spaced evenly around the IC50 value. The latter was estimated by nonlinear computer curve-fitting procedures and converted to Ki with the Cheng-Prusoff equation.

[5] = target: T5, NET (Rattus norvegicus, UniProt Q63380); assay: Uptake of [3H]NE by NET, rat hippocampus; type: biochemical; settings: [3H]NE uptake, read-out: Ki (NET), inhibition of NE uptake
T5 construct: from tissue; host or cells: rat hippocampus
T5 sequence (Q63380 1-617): as the sequence (Q63380 1-617) above
Source text: as §1

[6] = target: rat DAT (Rattus norvegicus, UniProt P23977); assay: Rat DAT binding, [3H]Win 35,428, striatal membranes; settings: for NET/DAT / SERT/DAT: Table 4, binding selectivity
rat DAT, sequence (P23977 whole entry): as the sequence (P23977 whole entry) above
Procedure: as §2

[7] = Stability of free base on storage; type: physicochemical; settings: room temperature
Procedure: To a solution of oxalyl chloride ([…], […]) in CH2Cl2 (3 mL) cooled to −78° C. was added dropwise 108 mg dimethylsulfoxide (1.38 mmol, 3 equiv). The mixture was stirred for 10 min and a solution of 236 mg racemic trans-3-hydroxy-4-[2-(diphenylmethoxy)ethyl]-1-[(4-fluorophenyl)methyl]piperidine (0.46 mmol) in CH2Cl2 (1 mL) was added dropwise. […] […]; H, 5.92; N, 2.76.

[8] = target: T3, dopamine transporter (DAT); settings: for [3H]DA/DAT Binding: Table 4, uptake/binding ratio
[9] = Table 3, read-out: NET, IC50, nM [3H]nisoxetine

What does the source list for `c1ccc(CN2CCC(CCNC(c3ccccc3)c3ccccc3)CC2)cc1` [Example 9]?
IC50 ([1]; Table 1, read-out: SERT, IC50): 1560 ± 208 nM; IC50 ([2]; Table 1, read-out: NET, IC50): 2620 nM; IC50 [3]: 20.6 ± 2.5 nM

For `O[C@@H](CN[C@H]1CC[C@@H](C(c2ccccc2)c2ccccc2)NC1)c1ccc(F)cc1` [Example 4a, (R)-2-[(3S,6S)-6-benzhydrylpiperidin-3-ylamino)-1-(4-fluorophenyl)ethanol], which Ki [4] is on record?
The Ki was 236 nM.

And the Ki [5]?
Its Ki is 1440 nM.

Which results are given for `Ic1ccc(CN2CCC(CCOC(c3ccccc3)c3ccccc3)CC2)cc1` [Example 19, 4-[2-(diphenylmethoxy)ethyl]-1-[(4-iodophenyl)methyl]piperidine]?
IC50 ([1]; Table 1, read-out: SERT, IC50): 2920 ± 432 nM; IC50 ([2]; Table 1, read-out: NET, IC50): 1150 ± 116 nM; IC50 ([6]; read-out: DAT, IC50, Table 1): 0.96 ± 0.16 nM

For `Fc1ccc(CN2CCC(CCOC(c3ccccc3)c3ccccc3)CC2)cc1F` [Example 2, 4-[2-(Diphenylmethoxy)ethyl]-1-[(3,4-difluorophenyl)methyl]piperidine], which IC50 ([1]; Table 1, read-out: SERT, IC50) is on record?
The IC50 was 1220 ± 139 nM.

What about the IC50 [3] of the same compound?
Its IC50 is 12 ± 1.62 nM.

And the SERT/DAT selectivity ratio [6]?
The SERT/DAT selectivity ratio was 122.

What about the IC50 ([6]; read-out: DAT, IC50, Table 1) of the same compound?
The IC50 was 10.1 ± 0.9 nM.

What does the source list for `Fc1ccc(CN2CCC(CCNC(c3ccccc3)c3ccccc3)CC2)cc1F` [Example 8, 4-[2-((Diphenylmethyl)amino)ethyl]-1-[(3,4-difluorophenyl)methyl]piperidine]?
IC50 ([1]; Table 1, read-out: SERT, IC50): 1590 ± 160 nM; IC50 ([2]; Table 1, read-out: NET, IC50): 1030 nM; IC50 [3]: 10.7 ± 1.8 nM

For `O=C1CN(Cc2ccc(F)cc2)CCC1CCOC(c1ccccc1)c1ccccc1` (racemic) [Example 18, racemic 3-Keto-4-[2-(diphenylmethoxy)ethyl]-1-[(4-fluorophenyl)methyl]piperidine], which IC50 [1] is on record?
Its IC50 is 7750 nM.

What about the IC50 ([2]; Table 5, rat striatum, read-out: NET, IC50, nM [3H]nisoxetine) of the same compound?
The IC50 was 6300 nM.

What about the “stability of the free base” value [7] of the same compound?
The value was “decomposes at room temperature”.

And the IC50 [6]?
Its IC50 is 99 ± 18 nM.

What does the source list for `Fc1ccc(CN2CCC(CNOC(c3ccccc3)c3ccccc3)CC2)cc1` [Example 7, 4-[((2-Diphenylmethoxy)amino)methyl]-1-[(4-fluorophenyl)methyl]piperidine]?
IC50 ([1]; Table 1, read-out: SERT, IC50): 626 ± 33 nM; IC50 [2]: 691 ± 68 nM; IC50 [3]: 16.6 ± 2.8 nM; IC50 ([6]; read-out: DAT, IC50, Table 1): 34.4 ± 4.2 nM

With `Fc1ccc(CNC2CCC(C(c3ccccc3)c3ccccc3)NC2)cc1` (racemic) [(±)-7a, 2-diphenylmethyl-5-(4-fluorobenzylamino)piperidine] as the compound, how does the IC50 [1] read?
The IC50 was 2810 nM.

And the IC50 [2, 9]?
The IC50 was 1350 nM.

And the “[3H]DA/DAT Binding” value [8]?
The value was 0.03.

And the IC50 [3]?
Its IC50 is 28.9 ± 2.5 nM.

What about the IC50 [6] of the same compound?
Its IC50 is 30 ± 0.5 nM.

And the SERT/DAT selectivity ratio [6]?
Its SERT/DAT selectivity ratio is 93.7.

And the NET/DAT [6]?
Its NET/DAT is 44.9.

And the SERT/DAT [6]?
The SERT/DAT was 93.7.

For `Fc1ccc(CN2CCC(CNCC(c3ccccc3)c3ccccc3)CC2)cc1` [Example 11, 4-[[2-(Diphenyl)ethyl]aminomethyl]-1-[(4-fluorophenyl)methyl]piperidine], which IC50 ([1]; Table 1, read-out: SERT, IC50) is on record?
The IC50 was 137 ± 45.6 nM.

And the “affinity for the SERT” value ([1]; in words)?
Its value is “moderate affinity”.

What about the IC50 ([2]; Table 1, read-out: NET, IC50) of the same compound?
The IC50 was 1110 nM.

And the “[3H]DA/DAT Binding” value [8]?
The value was 2.5.

And the IC50 ([8]; read-out: [3H]DA Inhibition, IC50, Table 2, rat synaptosome tissue)?
The IC50 was 49.6 ± 7.2 nM.

And the NET/DAT [6]?
The NET/DAT was 5.6.

What about the SERT/DAT [6] of the same compound?
Its SERT/DAT is 6.9.

And the “affinity for the DAT” value ([6]; in words)?
The value was “strong affinity”.

What about the IC50 ([6]; read-out: DAT, IC50, Table 1) of the same compound?
The IC50 was 19.7 ± 1.4 nM.

For `Fc1ccc(CN[C@H]2CC[C@H](C(c3ccccc3)c3ccccc3)NC2)cc1` (racemic) [(±)-7b, trans-2-diphenylmethyl-5-(4-fluorobenzylamino)piperidine], which IC50 [1] is on record?
Its IC50 is 1330 nM.

What about the IC50 [2, 9] of the same compound?
The IC50 was 4470 nM.

And the “[3H]DA/DAT Binding” value [8]?
The value was 0.5.

What about the IC50 [3] of the same compound?
The IC50 was 106 ± 10 nM.

What about the IC50 [6] of the same compound?
Its IC50 is 212 ± 20 nM.

What about the SERT/DAT selectivity ratio [6] of the same compound?
The SERT/DAT selectivity ratio was 6.28.

What about the NET/DAT [6] of the same compound?
Its NET/DAT is 21.

What about the SERT/DAT [6] of the same compound?
The SERT/DAT was 6.28.

For `CCC(=O)OC1CN(Cc2ccc(F)cc2)CCC1CCOC(c1ccccc1)c1ccccc1` (racemic) [Example 17], which IC50 ([1]; Table 5, rat striatum, read-out: SERT, IC50, nM [3H]citalopram) is on record?
The IC50 was 178 nM.

And the IC50 [2]?
The IC50 was 35800 nM.

What about the IC50 [6] of the same compound?
Its IC50 is 583 ± 81 nM.

What does the source list for `N#Cc1ccc(CN2CCC(CCOC(c3ccccc3)c3ccccc3)CC2)cc1` [Example 4, 4-[2-(Diphenylmethoxy)ethyl]-1-[(4-cyanophenyl)methyl]piperidine]?
IC50 ([1]; read-out: SERT, IC50): 2280 ± 470 nM; IC50 [3]: 4.58 ± 0.8 nM; SERT/DAT selectivity ratio [6]: 615; IC50 ([6]; read-out: IC50 for the dopamine transporter): 3.7 nM

Which results are given for `CS(=O)(=O)Nc1ccc(CN2CCC(CCOC(c3ccccc3)c3ccccc3)CC2)cc1` [Example 6, 4-[2-(Diphenylmethoxy)ethyl]-1-[((4-methylsulfonylamino)phenyl)methyl]piperidine]?
IC50 ([1]; Table 1, read-out: SERT, IC50): 586 ± 29.2 nM; IC50 [3]: 9.7 ± 1.2 nM; IC50 ([6]; read-out: DAT, IC50, Table 1): 26.6 ± 1.4 nM

With `O[C@H](CN[C@H]1CC[C@@H](C(c2ccccc2)c2ccccc2)NC1)c1ccc(F)cc1` [Example 4b, (S)-2-[(3S,6S)-6-benzhydrylpiperidin-3-ylamino)-1-(4-fluorophenyl)ethanol] as the compound, how does the Ki [4] read?
Its Ki is 152 nM.

And the Ki [5]?
The Ki was 306 nM.
